ChEMBL document CHEMBL1137289, “Structure-activity relationships of novel antibacterial translation inhibitors: 3,5-diamino-piperidinyl triazines” (Bioorg Med Chem Lett, 2006)
≈ marks a conversion by molar mass, not a printed value.

Legend:
Escherichia coli [1] = assay: Inhibition of protein synthesis in Escherichia coli S30 extracts by coupled transcription-translation assay; assay type: functional
Escherichia coli [2] = assay: microbe, parasite or virus in culture; details: ATCC 25922
Description: Antibacterial activity against Escherichia coli ATCC 25922

Escherichia coli [3] = assay: Antibacterial activity against wild type impermeable Escherichia coli LMG194; assay type: functional
Staphylococcus aureus = assay: microbe, parasite or virus in culture; details: ATCC 25923
Description: Antibacterial activity against Staphylococcus aureus ATCC 25923

Pseudomonas aeruginosa = assay: Antibacterial activity against Pseudomonas aeruginosa ATCC 27853; assay type: functional
[4] = (§1) Cytotoxicity against CEM T cells after 72 hrs by proliferation assay; assay type: cell-based, CCRF-CEM; details: human, CCRF-CEM (CEM) T cells
Escherichia coli [5] = assay: Antibacterial activity against isogenic permeable mutant Escherichia coli LMG194; assay type: functional
CCRF-CEM = assay: as §1; assay type: cell-based; details: human, ccrf-cem, 72 h

Compound | IC50 (Escherichia coli [1]; Escherichia coli) [µM] | MIC (Escherichia coli [2]) [µg/mL] | MIC (Staphylococcus aureus) [µg/mL] | also measured
N[C@@H]1C[C@H](N)CN(c2nc(Nc3ccc(S(N)(=O)=O)cc3)nc(N3C[C@H](N)C[C@H](N)C3)n2)C1 | 4 | > 64 | > 64 | MIC (Escherichia coli [3]): > 64 µg/mL
Cc1cc(C)cc(Nc2nc(N3C[C@H](N)C[C@H](N)C3)nc(N3C[C@H](N)C[C@H](N)C3)n2)c1 | 13 | 64 (≈ 150 µM) | 32 (≈ 75 µM) | MIC (Escherichia coli [3]): > 64 µg/mL
N[C@@H]1C[C@H](N)CN(c2nc(Nc3ccc(C(=O)CC(=O)Nc4ccc(-c5ccccc5)cc4)cc3)nc(N3C[C@H](N)C[C@H](N)C3)n2)C1 | 6 | 4 (≈ 6.29 µM) | 16 (≈ 25.2 µM) | MIC (Pseudomonas aeruginosa): ≤ 1 µg/mL; CC50 at 72 h [4]: 24 µM
N[C@@H]1C[C@H](N)CN(c2nc(Nc3ccc(C(=O)CC(=O)Nc4ccc5c(c4)OC(F)(F)O5)cc3)nc(N3C[C@H](N)C[C@H](N)C3)n2)C1 | 6 | 4 (≈ 6.25 µM) | 8 (≈ 12.5 µM) | MIC (Pseudomonas aeruginosa): 1 µg/mL (≈ 1.56 µM); CC50 at 72 h [4]: 146 µM
N[C@@H]1C[C@H](N)CN(c2nc(Nc3ccc(Br)cc3)nc(N3C[C@H](N)C[C@H](N)C3)n2)C1 | 4 | > 64 | > 64 | MIC (Escherichia coli [5]): 4 µg/mL (≈ 8.38 µM); MIC (Escherichia coli [3]): > 64 µg/mL
N[C@@H]1C[C@H](N)CN(c2nc(Nc3ccncc3)nc(N3C[C@H](N)C[C@H](N)C3)n2)C1 | 32 |  |  | 
N[C@@H]1C[C@H](N)CN(c2nc(Nc3ccc([N+](=O)[O-])cc3)nc(N3C[C@H](N)C[C@H](N)C3)n2)C1 | 4 | 32 (≈ 72.2 µM) | 32 (≈ 72.2 µM) | MIC (Escherichia coli [5]): 4 µg/mL (≈ 9.02 µM); MIC (Escherichia coli [3]): 32 µg/mL (≈ 72.2 µM)
N[C@@H]1C[C@H](N)CN(c2nc(Nc3ccccc3F)nc(N3C[C@H](N)C[C@H](N)C3)n2)C1 | 5 | > 64 | > 64 | MIC (Escherichia coli [3]): > 64 µg/mL
Cc1ccc2nc(-c3ccc(Nc4nc(N5C[C@H](N)C[C@H](N)C5)nc(N5C[C@H](N)C[C@H](N)C5)n4)cc3)sc2c1 | 10 | 2 (≈ 3.66 µM) | 2 (≈ 3.66 µM) | CC50 at 72 h [4]: 33 µM
CN(C)c1ccc(Nc2nc(N3C[C@H](N)C[C@H](N)C3)nc(N3C[C@H](N)C[C@H](N)C3)n2)cc1 | 11 | > 64 | > 64 | MIC (Escherichia coli [3]): > 64 µg/mL
N[C@@H]1C[C@H](N)CN(c2nc(Nc3ccc4c(c3)CCC4)nc(N3C[C@H](N)C[C@H](N)C3)n2)C1 | 15 | > 64 | 32 (≈ 73 µM) | MIC (Escherichia coli [5]): 8 µg/mL (≈ 18.2 µM); MIC (Escherichia coli [3]): 64 µg/mL (≈ 146 µM)
N[C@@H]1C[C@H](N)CN(c2nc(N3C[C@H](N)C[C@H](N)C3)nc(N3CCc4cc(Br)ccc43)n2)C1 | 5 | 16 (≈ 31.8 µM) |  | 
N[C@@H]1C[C@H](N)CN(c2nc(NO)nc(N3C[C@H](N)C[C@H](N)C3)n2)C1 | 45 |  |  | 
COc1ccc(Nc2nc(N3C[C@H](N)C[C@H](N)C3)nc(N3C[C@H](N)C[C@H](N)C3)n2)cc1 | 14 | > 64 | > 64 | MIC (Escherichia coli [3]): > 64 µg/mL
Nc1nc(N2C[C@H](N)C[C@H](N)C2)nc(N2C[C@H](N)C[C@H](N)C2)n1 | 92 |  |  | 
N[C@@H]1C[C@H](N)CN(c2nc(Nc3ccc(Cl)c(Cl)c3)nc(N3C[C@H](N)C[C@H](N)C3)n2)C1 | 7 | 32 (≈ 68.5 µM) |  | 
N[C@@H]1C[C@H](N)CN(c2nc(Nc3ccc(-c4ccccc4)cc3)nc(N3C[C@H](N)C[C@H](N)C3)n2)C1 | 9 | 16 (≈ 33.7 µM) |  | 

Compound | IC50 (Escherichia coli [1]; Escherichia coli) [µM] | MIC (Escherichia coli [2]) [µg/mL] | MIC (Staphylococcus aureus) [µg/mL] | also measured
N[C@@H]1C[C@H](N)CN(c2nc(Nc3ccc(C(=O)CC(=O)Nc4cccc(Br)c4)cc3)nc(N3C[C@H](N)C[C@H](N)C3)n2)C1 | 5 | 2 (≈ 3.13 µM) | 16 (≈ 25.1 µM) | MIC (Pseudomonas aeruginosa): ≤ 1 µg/mL; CC50 at 72 h [4]: 124 µM
N[C@@H]1C[C@H](N)CN(c2nc(Nc3ccc(F)cc3)nc(N3C[C@H](N)C[C@H](N)C3)n2)C1 | 3 | 64 (≈ 154 µM) | 16 (≈ 38.4 µM) | MIC (Escherichia coli [5]): 4 µg/mL (≈ 9.6 µM); MIC (Escherichia coli [3]): 32 µg/mL (≈ 76.8 µM)
Nc1ccc(Nc2nc(N3C[C@H](N)C[C@H](N)C3)nc(N3C[C@H](N)C[C@H](N)C3)n2)cc1 | 8 |  |  | 
CN(C)c1nc(N2C[C@H](N)C[C@H](N)C2)nc(N2C[C@H](N)C[C@H](N)C2)n1 | 290 |  |  | 
N[C@@H]1C[C@H](N)CN(c2nc(Nc3cccc(C(F)(F)F)c3)nc(N3C[C@H](N)C[C@H](N)C3)n2)C1 | 5 | 32 (≈ 68.6 µM) | 16 (≈ 34.3 µM) | MIC (Escherichia coli [5]): 4 µg/mL (≈ 8.57 µM); MIC (Escherichia coli [3]): 32 µg/mL (≈ 68.6 µM)
N[C@@H]1C[C@H](N)CN(c2nc(Nc3ccc(O)cc3)nc(N3C[C@H](N)C[C@H](N)C3)n2)C1 | 11 | > 64 | > 64 | MIC (Escherichia coli [3]): > 64 µg/mL
N[C@@H]1C[C@H](N)CN(c2nc(NC3CCCCC3)nc(N3C[C@H](N)C[C@H](N)C3)n2)C1 | 63 |  |  | 
N[C@@H]1C[C@H](N)CN(c2nc(Nc3ccon3)nc(N3C[C@H](N)C[C@H](N)C3)n2)C1 | 9 |  |  | 
COc1cccc(Nc2nc(N3C[C@H](N)C[C@H](N)C3)nc(N3C[C@H](N)C[C@H](N)C3)n2)c1NC(=O)c1ccc(Cl)cc1O | 30 | > 64 |  | 
NNc1nc(N2C[C@H](N)C[C@H](N)C2)nc(N2C[C@H](N)C[C@H](N)C2)n1 | 170 |  |  | 
N[C@@H]1C[C@H](N)CN(c2nc(Nc3ccccc3)nc(N3C[C@H](N)C[C@H](N)C3)n2)C1 | 7 | > 64 | > 64 | MIC (Escherichia coli [3]): > 64 µg/mL
N[C@@H]1C[C@H](N)CN(c2nc(Nc3ccc(NC(=O)c4cccc(O)c4O)cc3)nc(N3C[C@H](N)C[C@H](N)C3)n2)C1 | 5 | 8 (≈ 14.6 µM) |  | 
N[C@@H]1C[C@H](N)CN(c2nc(Cl)nc(N3C[C@H](N)C[C@H](N)C3)n2)C1 | 42 |  |  | 
O=C(N[C@H](CO)[C@H](O)c1ccc([N+](=O)[O-])cc1)C(Cl)Cl [CHLORAMPHENICOL] | 1.5 | 4 (≈ 12.4 µM) | 8 (≈ 24.8 µM) | MIC (Pseudomonas aeruginosa): > 64 µg/mL
NC[C@H]1O[C@H](O[C@H]2[C@H](O)[C@@H](O[C@H]3O[C@H](CO)[C@@H](O)[C@H](N)[C@H]3O)[C@H](N)C[C@@H]2N)[C@H](O)[C@@H](O)[C@@H]1O [KANAMYCIN] | 0.4 |  |  | 
CN(C)[C@@H]1C(O)=C(C(N)=O)C(=O)[C@@]2(O)C(O)=C3C(=O)c4c(O)cccc4[C@@](C)(O)[C@H]3C[C@@H]12 [TETRACYCLINE] | 2.8 |  |  | 
GENTAMICIN |  |  |  | IC50 (Escherichia coli [1]): 0.03 µM; CC50 (CCRF-CEM): > 300 µM

Further compounds by falling IC50 (Escherichia coli [1]; Escherichia coli), results first:

IC50 (Escherichia coli [1]; Escherichia coli) [µM] | MIC (Escherichia coli [2]) [µg/mL] | Compound | MIC (Staphylococcus aureus) [µg/mL] | also measured
180 |  | CCN(CC)c1nc(N2C[C@H](N)C[C@H](N)C2)nc(N2C[C@H](N)C[C@H](N)C2)n1 |  | 
62 |  | CNc1nc(N2C[C@H](N)C[C@H](N)C2)nc(N2C[C@H](N)C[C@H](N)C2)n1 |  | 
36 |  | N[C@@H]1C[C@H](N)CN(c2nc(NC3CCNC3)nc(N3C[C@H](N)C[C@H](N)C3)n2)C1 (stereo not given in full) |  | 
23 |  | N[C@@H]1C[C@H](N)CN(c2nc(N3CCNCC3)nc(N3C[C@H](N)C[C@H](N)C3)n2)C1 |  | 
14 | 64 (≈ 146 µM) | N[C@@H]1C[C@H](N)CN(c2nc(Nc3ccc4[nH]cnc4c3)nc(N3C[C@H](N)C[C@H](N)C3)n2)C1 |  | 
10 | 1 (≈ 1.71 µM) | N[C@@H]1C[C@H](N)CN(c2nc(Nc3ccc(NC(=O)c4ccc5ccccc5c4O)cc3)nc(N3C[C@H](N)C[C@H](N)C3)n2)C1 | 2 (≈ 3.43 µM) | MIC (Pseudomonas aeruginosa): 1 µg/mL (≈ 1.71 µM); CC50 at 72 h [4]: 140 µM
10 | 2 (≈ 3.32 µM) | N[C@@H]1C[C@H](N)CN(c2nc(Nc3ccc(C(=O)Nc4ccc(Cl)c(Cl)c4)c(O)c3)nc(N3C[C@H](N)C[C@H](N)C3)n2)C1 |  | 
9 | 4 (≈ 6.72 µM) | N[C@@H]1C[C@H](N)CN(c2nc(Nc3ccc(C(=O)CC(=O)Nc4ccc(F)c(F)c4)cc3)nc(N3C[C@H](N)C[C@H](N)C3)n2)C1 | 16 (≈ 26.9 µM) | MIC (Pseudomonas aeruginosa): 1 µg/mL (≈ 1.68 µM); CC50 at 72 h [4]: 179 µM
9 | 2 (≈ 3.13 µM) | N[C@@H]1C[C@H](N)CN(c2nc(Nc3ccc(C(=O)N4CCc5cc(Br)ccc54)c(O)c3)nc(N3C[C@H](N)C[C@H](N)C3)n2)C1 |  | 
8 | 4 (≈ 6.69 µM) | COc1cc(Nc2nc(N3C[C@H](N)C[C@H](N)C3)nc(N3C[C@H](N)C[C@H](N)C3)n2)ccc1NC(=O)c1ccc(Cl)cc1O |  | 
7 | 2 (≈ 3.52 µM) | N[C@@H]1C[C@H](N)CN(c2nc(Nc3ccc(NC(=O)c4ccc(Cl)cc4)c(O)c3)nc(N3C[C@H](N)C[C@H](N)C3)n2)C1 | 16 (≈ 28.2 µM) | MIC (Pseudomonas aeruginosa): ≤ 0.5 µg/mL; CC50 at 72 h [4]: 180 µM
4 | 8 (≈ 14.6 µM) | N[C@@H]1C[C@H](N)CN(c2nc(Nc3cccc(NC(=O)c4cccc(O)c4O)c3)nc(N3C[C@H](N)C[C@H](N)C3)n2)C1 |  | 
4 | 8 (≈ 13.9 µM) | N[C@@H]1C[C@H](N)CN(c2nc(Nc3ccc(C(=O)Nc4ccc5[nH]cnc5c4)c(O)c3)nc(N3C[C@H](N)C[C@H](N)C3)n2)C1 |  | 
4 | 4 (≈ 6.73 µM) | N[C@@H]1C[C@H](N)CN(c2nc(Nc3ccc(C(=O)CC(=O)Nc4ccccc4Cl)cc3)nc(N3C[C@H](N)C[C@H](N)C3)n2)C1 | 16 (≈ 26.9 µM) | MIC (Pseudomonas aeruginosa): ≤ 1 µg/mL; CC50 at 72 h [4]: 71 µM
4 | 4 (≈ 5.94 µM) | Cc1ccc(S(=O)(=O)N(Cc2ccccc2)c2ccc(Nc3nc(N4C[C@H](N)C[C@H](N)C4)nc(N4C[C@H](N)C[C@H](N)C4)n3)cc2O)cc1 | 16 (≈ 23.7 µM) | MIC (Pseudomonas aeruginosa): 16 µg/mL (≈ 23.7 µM); CC50 at 72 h [4]: 68 µM
4 | 1 (≈ 1.66 µM) | N[C@@H]1C[C@H](N)CN(c2nc(Nc3ccc(NC(=O)C(=O)c4c[nH]c5ccccc45)c(O)c3)nc(N3C[C@H](N)C[C@H](N)C3)n2)C1 | 16 (≈ 26.6 µM) | MIC (Pseudomonas aeruginosa): ≤ 0.5 µg/mL; CC50 at 72 h [4]: 92 µM
